Measurements from patent US8901118B2, “Compounds and methods for kinase modulation, and indications therefor” (Plexxikon Inc., priority 2010, dated 2014).

What was measured:
[1] = molecular target: CYP2D6 (Homo sapiens, UniProt P10635); assay: CYP2D6 inhibition (fluorescent substrate AMMC); assay type: in vitro ADME; conditions: read-out: Cyp IC50 2D6
Procedure, shortened: (§1)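 IC50 derives from metabolite fluorescence against compound concentration, read at excitation 409 nm and emission 460 nm for CYP1A2/2C19 or 530 nm for CYP2C9/2D6. Incubations ran at 37° C for 15 min (1A2), 45 min (2C9) or 30 min (2C19, 2D6), after serial dilution into NADPH cofactor mix and 10 min preincubation.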

[2] = molecular target: T1, CYP1A2 (Homo sapiens, UniProt P05177); assay: CYP1A2 inhibition (fluorescent substrate CEC); assay type: in vitro ADME; conditions: read-out: Cyp IC50 1A2
T1 sequence (P05177 1-516): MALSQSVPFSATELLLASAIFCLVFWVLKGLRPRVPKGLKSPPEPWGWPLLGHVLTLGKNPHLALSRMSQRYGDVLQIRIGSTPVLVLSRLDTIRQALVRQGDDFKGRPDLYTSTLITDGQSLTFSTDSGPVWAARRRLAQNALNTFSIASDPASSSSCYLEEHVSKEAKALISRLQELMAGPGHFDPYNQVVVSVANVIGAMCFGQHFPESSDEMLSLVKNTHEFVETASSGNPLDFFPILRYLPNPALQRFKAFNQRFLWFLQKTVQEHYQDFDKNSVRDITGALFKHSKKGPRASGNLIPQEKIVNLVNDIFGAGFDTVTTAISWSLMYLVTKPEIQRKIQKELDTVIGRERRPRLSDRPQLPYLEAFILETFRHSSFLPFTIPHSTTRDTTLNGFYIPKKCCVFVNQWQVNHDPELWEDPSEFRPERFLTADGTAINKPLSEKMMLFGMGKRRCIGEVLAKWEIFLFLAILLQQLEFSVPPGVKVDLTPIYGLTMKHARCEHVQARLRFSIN
Procedure, shortened: as §1

[3] = Relative solubility by turbidity in aqueous buffers (pH 1.5, 4.5, 6.8, 7.4); assay type: physicochemical; conditions: for turbidity threshold (L, M, H) 1.4: pH 1.5 (SGF); for turbidity threshold (L, M, H) 4.5: pH 4.5 (SIF); for turbidity threshold (L, M, H) 6.8: pH 6.8 (SIF); for turbidity threshold (L, M, H) 7.4: pH 7.4 (HEPES)
Procedure, shortened: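 Reported value: concentration at which optical density at 490, 535 and 650 nm passes 0.01, taken as the mean of the three wavelengths. Buffers were 0.5M NaCl pH 1.5, 0.05M NaH2PO4 pH 4.5 or 6.8, and 10 mM HEPES/150 mM NaCl pH 7.4, each receiving serial 1:1 DMSO dilutions of a 25 mM stock.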

[4] = molecular target: CYP3A4(BQ) (Homo sapiens, UniProt P08684); assay: CYP3A4(BQ) inhibition; assay type: in vitro ADME; conditions: CYP3A4, substrate BQ; read-out: Cyp IC50 3A4(BQ)
Procedure, shortened: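 After 30 min incubation at 37° C, plates were read on a Tecan Safire 2 at 409 ex/460 em, and IC50 values came from signal plotted against compound concentration. Enzyme and substrate were sourced from BD Biosciences. The cofactor mix held 1.3% NADPH Regeneration system Solution A, 1.04% Solution B, 5% acetonitrile and 0.05% DMSO.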

[5] = molecular target: Fms kinase (Homo sapiens, UniProt P07333); assay: Fms kinase biochemical activity assay (AlphaScreen, biotin-(E4Y)10 phosphorylation); conditions: 100 μM ATP; read-out: Biochemical Inhibition IC50 Fms
Procedure, shortened: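 AlphaScreen read-out (PY20 acceptor, streptavidin donor beads, EDTA stop) of biotin-(E4Y)10 phosphorylation, with IC50 taken from the concentration–signal curve. Reaction: 30 nM substrate, 100 μM ATP, 1 ng/well Fms, Hepes pH 7.5 with Mg2+/Mn2+, 5% DMSO, 20 min at 30 °C.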

CYP3A4(BQ), sequence (P08684 whole entry): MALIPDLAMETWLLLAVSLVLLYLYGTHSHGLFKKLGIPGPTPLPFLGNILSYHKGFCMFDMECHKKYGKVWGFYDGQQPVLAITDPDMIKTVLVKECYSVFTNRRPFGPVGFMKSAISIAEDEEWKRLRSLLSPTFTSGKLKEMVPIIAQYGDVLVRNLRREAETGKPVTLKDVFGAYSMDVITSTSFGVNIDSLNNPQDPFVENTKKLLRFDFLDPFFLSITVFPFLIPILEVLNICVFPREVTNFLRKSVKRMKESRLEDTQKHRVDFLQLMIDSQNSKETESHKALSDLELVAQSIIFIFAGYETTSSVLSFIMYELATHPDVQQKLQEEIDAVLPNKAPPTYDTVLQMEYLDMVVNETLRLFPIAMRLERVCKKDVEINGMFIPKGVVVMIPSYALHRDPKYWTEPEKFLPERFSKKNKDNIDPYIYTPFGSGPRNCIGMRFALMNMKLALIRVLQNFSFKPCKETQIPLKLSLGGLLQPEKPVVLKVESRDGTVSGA
CYP2D6, sequence (P10635 whole entry): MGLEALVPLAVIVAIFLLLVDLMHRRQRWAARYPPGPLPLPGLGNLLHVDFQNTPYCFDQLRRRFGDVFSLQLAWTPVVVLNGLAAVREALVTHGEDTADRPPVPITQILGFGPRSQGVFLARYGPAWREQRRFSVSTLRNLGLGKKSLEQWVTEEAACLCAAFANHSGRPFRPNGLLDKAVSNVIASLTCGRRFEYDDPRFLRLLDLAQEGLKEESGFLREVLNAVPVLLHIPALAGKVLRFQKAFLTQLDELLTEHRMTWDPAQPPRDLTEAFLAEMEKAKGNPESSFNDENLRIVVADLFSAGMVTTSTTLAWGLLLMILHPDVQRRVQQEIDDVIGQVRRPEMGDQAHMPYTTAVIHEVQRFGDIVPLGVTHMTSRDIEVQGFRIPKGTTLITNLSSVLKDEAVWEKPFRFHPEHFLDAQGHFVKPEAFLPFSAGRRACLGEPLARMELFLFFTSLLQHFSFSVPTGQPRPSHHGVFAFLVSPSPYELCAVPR
Fms kinase, sequence (P07333 20-972): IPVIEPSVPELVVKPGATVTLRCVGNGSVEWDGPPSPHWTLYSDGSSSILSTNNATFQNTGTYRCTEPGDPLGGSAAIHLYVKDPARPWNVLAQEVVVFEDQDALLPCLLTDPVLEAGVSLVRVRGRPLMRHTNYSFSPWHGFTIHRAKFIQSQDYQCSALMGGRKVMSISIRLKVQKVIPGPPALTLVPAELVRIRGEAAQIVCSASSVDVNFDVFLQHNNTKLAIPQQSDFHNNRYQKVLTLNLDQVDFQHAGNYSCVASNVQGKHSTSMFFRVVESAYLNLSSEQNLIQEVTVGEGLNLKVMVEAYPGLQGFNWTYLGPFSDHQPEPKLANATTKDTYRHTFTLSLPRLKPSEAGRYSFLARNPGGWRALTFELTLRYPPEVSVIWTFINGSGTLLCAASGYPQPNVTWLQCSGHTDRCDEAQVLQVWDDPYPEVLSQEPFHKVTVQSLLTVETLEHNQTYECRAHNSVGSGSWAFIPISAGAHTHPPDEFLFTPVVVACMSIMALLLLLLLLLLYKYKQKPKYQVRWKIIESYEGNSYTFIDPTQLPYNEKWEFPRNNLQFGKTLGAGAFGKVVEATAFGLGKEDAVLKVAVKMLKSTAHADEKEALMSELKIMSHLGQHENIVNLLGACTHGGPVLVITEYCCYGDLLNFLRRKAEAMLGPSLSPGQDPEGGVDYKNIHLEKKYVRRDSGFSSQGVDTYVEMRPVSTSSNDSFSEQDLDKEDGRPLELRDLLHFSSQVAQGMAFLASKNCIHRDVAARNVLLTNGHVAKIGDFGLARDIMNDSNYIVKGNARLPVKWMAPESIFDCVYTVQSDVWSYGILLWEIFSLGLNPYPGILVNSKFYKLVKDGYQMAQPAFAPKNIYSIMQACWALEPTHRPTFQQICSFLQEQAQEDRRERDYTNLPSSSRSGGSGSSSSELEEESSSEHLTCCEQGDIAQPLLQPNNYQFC

SMILES | IC50 [1] [µM] | IC50 [2] [µM] | turbidity threshold (L, M, H) 1.4 [3] | turbidity threshold (L, M, H) 4.5 [3] | turbidity threshold (L, M, H) 6.8 [3] | turbidity threshold (L, M, H) 7.4 [3] | IC50 [4] [µM] | IC50 [5] [µM]
O=C(c1ccc(Nc2ccc(C(F)(F)F)nc2)nc1F)c1c[nH]c2ncnc(NC3CC3)c12 [Compound P-4091, [4-(cyclopropylamino)-7H-pyrrolo[2,3-d]pyrimidin-5-yl]-[2-fluoro-6-[[6-(trifluoromethyl)-3-pyridyl]amino]-3-pyridyl]methanone] | > 10 | > 10 | H (high solubility if the threshold concentration is >250 μm) | M (moderate solubility if the threshold concentration is 31.3 μM to 250 μM) | M (moderate solubility if the threshold concentration is 31.3 μM to 250 μM) | M (moderate solubility if the threshold concentration is 31.3 μM to 250 μM) | > 10 | < 0.1
CNc1ncnc2[nH]cc(C(=O)c3ccc(Nc4ccc(C(F)(F)F)nc4)nc3F)c12 [Compound P-4092, [2-fluoro-6-[[6-(trifluoromethyl)-3-pyridyl]amino]-3-pyridyl]-[4-(methylamino)-7H-pyrrolo[2,3-d]pyrimidin-5-yl]methanone] | < 5 | < 5 | M (moderate solubility if the threshold concentration is 31.3 μM to 250 μM) | M (moderate solubility if the threshold concentration is 31.3 μM to 250 μM) | M (moderate solubility if the threshold concentration is 31.3 μM to 250 μM) | M (moderate solubility if the threshold concentration is 31.3 μM to 250 μM) | > 10 | < 0.01
O=C(c1ccc(Nc2ccc(C3CC3)nc2)nc1F)c1c[nH]c2ncnc(NC3CC3)c12 [Compound P-4093, [4-(cyclopropylamino)-7H-pyrrolo[2,3-d]pyrimidin-5-yl]-[6-[(6-cyclopropyl-3-pyridyl)amino]-2-fluoro-3-pyridyl]methanone] | > 10 | > 10 | H (high solubility if the threshold concentration is >250 μm) | L (low solubility if the threshold concentration is <31.3 μM) | L (low solubility if the threshold concentration is <31.3 μM) | L (low solubility if the threshold concentration is <31.3 μM) | > 10 | < 0.01
CNc1ncnc2[nH]cc(C(=O)c3ccc(Nc4ccc(C5CC5)nc4)nc3F)c12 [Compound P-4094, [6-[(6-cyclopropyl-3-pyridyl)amino]-2-fluoro-3-pyridyl]-[4-(methylamino)-7H-pyrrolo[2,3-d]pyrimidin-5-yl]methanone] | < 5 | < 5 | H (high solubility if the threshold concentration is >250 μm) | L (low solubility if the threshold concentration is <31.3 μM) | M (moderate solubility if the threshold concentration is 31.3 μM to 250 μM) | M (moderate solubility if the threshold concentration is 31.3 μM to 250 μM) | > 10 | < 0.01
CCc1ccc(Nc2ccc(C(=O)c3c[nH]c4ncnc(NC5CCC5)c34)c(F)n2)cn1 [Compound P-4095, [4-(cyclobutylamino)-7H-pyrrolo[2,3-d]pyrimidin-5-yl]-[6-[(6-ethyl-3-pyridyl)amino]-2-fluoro-3-pyridyl]methanone] | > 10 | > 10 | M (moderate solubility if the threshold concentration is 31.3 μM to 250 μM) | M (moderate solubility if the threshold concentration is 31.3 μM to 250 μM) | M (moderate solubility if the threshold concentration is 31.3 μM to 250 μM) | M (moderate solubility if the threshold concentration is 31.3 μM to 250 μM) | > 10 | < 0.01
CCc1ccc(Nc2ccc(C(=O)c3c[nH]c4ncnc(NC5CCC(F)(F)CC5)c34)c(F)n2)cn1 [Compound P-4096, [4-[(4,4-difluorocyclohexyl)amino]-7H-pyrrolo[2,3-d]pyrimidin-5-yl]-[6-[(6-ethyl-3-pyridyl)amino]-2-fluoro-3-pyridyl]methanone] | < 5 | < 5 | H (high solubility if the threshold concentration is >250 μm) | L (low solubility if the threshold concentration is <31.3 μM) | L (low solubility if the threshold concentration is <31.3 μM) | L (low solubility if the threshold concentration is <31.3 μM) | 5 to 10 | < 0.1
CCc1ccc(Nc2ccc(C(=O)c3c[nH]c4ncnc(N[C@@H](C)c5ccc(F)cc5)c34)c(F)n2)cn1 [Compound P-4097, [6-[(6-ethyl-3-pyridyl)amino]-2-fluoro-3-pyridyl]-[4-[[(1S)-1-(4-fluorophenyl)ethyl]amino]-7H-pyrrolo[2,3-d]pyrimidin-5-yl]methanone] | < 5 | < 5 | M (moderate solubility if the threshold concentration is 31.3 μM to 250 μM) | L (low solubility if the threshold concentration is <31.3 μM) | L (low solubility if the threshold concentration is <31.3 μM) | L (low solubility if the threshold concentration is <31.3 μM) | > 10 | < 1
CCc1ccc(Nc2ccc(C(=O)c3c[nH]c4ncnc(NCCCOC)c34)c(F)n2)cn1 [Compound P-4098, [6-[(6-ethyl-3-pyridyl)amino]-2-fluoro-3-pyridyl]-[4-(3-methoxypropylamino)-7H-pyrrolo[2,3-d]pyrimidin-5-yl]methanone] | < 5 | < 5 | H (high solubility if the threshold concentration is >250 μm) | L (low solubility if the threshold concentration is <31.3 μM) | M (moderate solubility if the threshold concentration is 31.3 μM to 250 μM) | M (moderate solubility if the threshold concentration is 31.3 μM to 250 μM) | > 10 | < 0.01
CCc1ccc(Nc2ccc(C(=O)c3c[nH]c4ncnc(NC5CCCC5)c34)c(F)n2)cn1 [Compound P-4099, [4-(cyclopentylamino)-7H-pyrrolo[2,3-d]pyrimidin-5-yl]-[6-[(6-ethyl-3-pyridyl)amino]-2-fluoro-3-pyridyl]methanone] | < 5 | < 5 | H (high solubility if the threshold concentration is >250 μm) | L (low solubility if the threshold concentration is <31.3 μM) | L (low solubility if the threshold concentration is <31.3 μM) | L (low solubility if the threshold concentration is <31.3 μM) | < 5 | < 0.1
CCCCNc1ncnc2[nH]cc(C(=O)c3ccc(Nc4ccc(CC)nc4)nc3F)c12 [Compound P-4100, [4-(butylamino)-7H-pyrrolo[2,3-d]pyrimidin-5-yl]-[6-[(6-ethyl-3-pyridyl)amino]-2-fluoro-3-pyridyl]methanone] | < 5 | < 5 | H (high solubility if the threshold concentration is >250 μm) | M (moderate solubility if the threshold concentration is 31.3 μM to 250 μM) | M (moderate solubility if the threshold concentration is 31.3 μM to 250 μM) | M (moderate solubility if the threshold concentration is 31.3 μM to 250 μM) | > 10 | < 0.1
